Assay: Stability (degradation) of sirolimus solid forms
Assay type: physicochemical

CO[C@H]1C[C@@H]2CC[C@@H](C)[C@@](O)(O2)C(=O)C(=O)N2CCCC[C@H]2C(=O)O[C@H]([C@H](C)C[C@@H]2CC[C@@H](O)[C@H](OC)C2)CC(=O)[C@H](C)/C=C(\C)[C@@H](O)[C@@H](OC)C(=O)[C@H](C)C[C@H](C)/C=C/C=C/C=C/1C [sirolimus]
stability (degradation) (amorphous form): degrades at a fast rate
stability (degradation) (crystalline form): substantially stable

From US20110275798A1, “Method for Determination of Sirolimus Stability and Process for Preparing Its Stable Form” (priority 2009, published 2011)
